By melting point is commonly meant the temperature of the solid-liquid transition. Regarding `CCc1nc(C)c(C=O)[nH]1`, the melting point lay in the range of 104 to 105 °C.

In the case of `COc1ccccc1C(=S)N1CCCCC1`, the melting point was found to be 85 °C.

Turning to `CCCCC(CC)COP(=O)(Oc1ccccc1)Oc1ccccc1` (centres undefined), the melting point is -54 °C.

Regarding `NCc1ccc2sccc2c1`, the melting point is 41 to 43 °C.

As to `Cc1ccc(C(c2ccc(C)o2)c2cc(Br)ccc2O)o1`, the melting point is 97 °C.

In turn, `CC(=O)c1sc(-c2ccccc2)cc1N` had a melting point of 135 to 137 °C.

Take `COc1cccc(C=C[N+](=O)[O-])c1OC`: the melting point lay in the range of 83 to 85 °C.

With `COc1ccc(Cl)c(OC)c1C(N)=O`, the melting point lay within 156 to 158 °C.

Turning to `CN(C)c1ccc(C=O)c(Cl)c1`, the melting point lay within 83 to 84 °C.

In turn, `O=C1C=C(Cl)C(=O)C(Cl)=C1` displayed a melting point of 123 °C.

Compound `COc1ccccc1NC(=O)c1cncc(Cl)n1` had a melting point of 72 °C.

As to `CC(=O)Oc1ccccc1-c1ccccc1`, the melting point was 65 °C.

The compound `O=C(O)c1c(Cl)ccc(Cl)c1Cl` yielded a melting point of 125 °C.

The compound `CSc1nc(N=Cc2ccc(Cl)cc2)nn1C` yielded a melting point of 136 to 138 °C.

`Oc1ncccc1Br`: the melting point was determined as 187 °C.

The compound `COc1c(F)cc(F)cc1C#N` registered a melting point of 35 °C.

The compound `CN(C)c1ccc(C=C2C(=O)NN=C2c2c(O)c3ccccc3n(C)c2=O)cc1` came in with a melting point of 262 °C.

In turn, `Oc1cc(O)cc(Cl)c1` registered a melting point of 118 °C.

`CCOc1ccc(C(=S)N2CCOCC2)cc1OC` registered a melting point of 119 °C.

With `Cc1cccc(Br)c1C(=O)O`, the melting point was determined as 109 °C.

`O=C(O)C=CC(=O)Nc1ccc(Cl)cc1` came in with a melting point of 200 to 203 °C.

The compound `Cc1cccc(N(C)C(=S)Oc2ccc3c(c2)C2CCC3C2)c1` (centres undefined) had a melting point of 93 °C.

On to `NS(=O)(=O)Cc1ccccc1`, for which the melting point turned out to be 103 °C.

For `Ic1cc2ccccc2c2ccccc12`, the melting point was found to be 92 °C.

As to `CC1CCC2C(C)C(=O)OCC12` (centres undefined), the melting point amounted to 60.5 °C.

Regarding `CCN(CC)C(=O)c1ccc(O)c(OC)c1`, the melting point is 95 °C.

Compound `COc1ccc(/C=C2\SC(=S)N(CN3CCOCC3)C2=O)cc1` had a melting point of 133 °C.

In turn, `CC(CS)C(=O)N1CCCC1C(=O)O` (centres undefined) returned a melting point of 106 °C.

The compound `O=Cc1cc(Cl)cc(Br)c1O` displayed a melting point of 86 °C.

The compound `CCCCOc1ccc(NC(=O)C(C(F)(F)F)C(F)(F)F)cc1` came in with a melting point of 172 °C.

For the compound `CC(C)=CCCC(C)=CC=CC(C)=CC=CC(C)=CC=CC=C(C)C=CC=C(C)C=CC1=C(C)CCCC1(C)C`, the melting point stood at 178 °C.

`O=C1c2ccccc2-c2ccc3c4ccc5c6c(ccc(c7ccc1c2c73)c64)C(=O)c1ccccc1-5` had a melting point of 492 °C.

Compound `CCC(C)(C)c1ccc(O)cc1` returned a melting point of 95 °C.

Compound `CCOC(=O)C(=Cc1cc(C=C(C(=O)OCC)C(=O)OCC)cc([N+](=O)[O-])c1)C(=O)OCC` showed a melting point of 80 °C.

With `O=C(O)c1ccc2nccn2c1`, the melting point amounted to 250 °C.

As for `CC(=O)OC1OC(=O)c2ccccc21` (centres undefined), the melting point is 71 °C.

Turning to `Nc1cc(-c2ccccc2)nn1-c1ccccc1`, the melting point worked out at 131 °C.

For `CCOc1ccc(C(=O)OC)cc1`, the melting point was 36 °C.

As to `CC(=O)c1ccc(O)cc1C`, the melting point worked out at 128 °C.

On to `COc1cccc(C(=O)N(NC(=O)c2ccccc2)C(C)(C)C)c1`, for which the melting point was found to be 188 °C.

The compound `CC(=O)c1cc2cc(Cl)cc(Cl)c2oc1=O` yielded a melting point of 172 to 174 °C.

For `CCOOCC`, the melting point was -70 °C.

As to `CCCCCCCCCBr`, the melting point is -29 °C.

Regarding `CC(=O)N1CCSC1C(=O)O` (centres undefined), the melting point lay in the range of 114 to 116 °C.

In turn, `O=C(O)c1cc(-c2ccccc2)on1` gave a melting point of 192 to 200 °C.

`Cn1c(=O)oc2ccccc21` displayed a melting point of 82 to 86 °C.

Compound `O=C(O)c1ccc2ccccc2c1O` yielded a melting point of 199 to 205 °C.

`CCNc1nc(Cl)nc(N(CC)CC)n1` yielded a melting point of 102 °C.

On to `COc1ccc(-n2nc(C(=O)c3cccc4ccccc34)sc2=N)cc1`, for which the melting point was 75 °C.

`CC(C)(C)C1=CC(=Cc2cc(C(C)(C)C)c(O)c(C(C)(C)C)c2)C=C(C(C)(C)C)C1=O` gave a melting point of 156 to 160 °C.

In the case of `COc1cc(C(C)(C)C)c(O)c(C(C)(C)C)c1`, the melting point is 105 °C.

`O=C(CCl)c1cc(C(=O)CCl)c([N+](=O)[O-])cc1[N+](=O)[O-]`: the melting point amounted to 148 °C.

As to `N#CC#CC#N`, the melting point is 20.5 °C.

`NNC(=S)NCCN1CCCCC1` returned a melting point of 121 to 123 °C.

The compound `CCCCCOC(=O)CCCCC` came in with a melting point of -47 °C.

Regarding `O=CNC(Nc1ccc(Cl)c(Cl)c1)C(Cl)(Cl)Cl` (centres undefined), the melting point turned out to be 135 °C.

`COc1ccccc1-c1ccc(C=C2C(=O)NC(=O)NC2=O)o1` yielded a melting point of 220 °C.

For `Cc1ccc(S(=O)(=O)CCCl)cc1`, the melting point was in the range of 77 to 78 °C.

Turning to `OCC(Br)C(Br)CO` (centres undefined), the melting point amounted to 85 °C.

In the case of `C1=C[C@@H](OCc2ccccc2)[C@H](OCc2ccccc2)[C@@H](COCc2ccccc2)O1`, the melting point lay within 54 to 57 °C.

In turn, `CCCCc1cc(C)ccc1O` registered a melting point of 19 °C.

With `O=C(O)Cc1ccc(I)cc1`, the melting point was 138 °C.

Turning to `CCCCCC1CCCC1`, the melting point is -83 °C.

The compound `C#C[C@@]1(OC)CC[C@H]2[C@@H]3CCc4cc(OC)ccc4[C@H]3CC[C@@]21C` came in with a melting point of 114 °C.

Consider `CCC(CCC(C)C1CCC2C3=CC=C4CC(O)CCC4(C)C3CCC21C)C(C)C` (centres undefined), for which the melting point amounted to 144 °C.

In turn, `CCOC(=O)CCc1ccc(O)cc1` gave a melting point of 40 to 42 °C.

Turning to `CC(=O)Oc1ccc(I)cc1`, the melting point turned out to be 32 °C.

`COc1ccc2c(c1)C(=O)CC2` registered a melting point of 107 to 111 °C.

The compound `CC(=NO)c1ccco1` had a melting point of 104 to 105 °C.

On to `FC(F)(F)c1cc(Cl)c2cc(Cl)ccc2n1`, for which the melting point was 104 to 107 °C.

In the case of `COc1ccc(C(=O)Nc2ccc(-c3ccc4nn(-c5ccccc5)nc4c3)cc2)cc1`, the melting point was 240 to 243 °C.

`COc1ccc([N+](=O)[O-])cc1C(F)(F)F` returned a melting point of 79 to 81 °C.

In turn, `Fc1cc(Br)cc(Br)c1Br` had a melting point of 30 to 34 °C.

As to `COc1ccc(C=C2C(=O)NC(=N)N2C)cc1OC`, the melting point was 243 to 245 °C.

Regarding `CC(c1ccc(OC(F)=C(F)F)cc1)(c1ccc(OC(F)=C(F)F)cc1)c1ccc(OC(F)=C(F)F)cc1`, the melting point was in the range of 31 to 32 °C.

On to `CCCCCCCCCCCCCC(=O)Oc1ccc(N=Cc2ccc(N(C)C)cc2)cc1`, for which the melting point came out at 106 °C.

With `N#Cc1ccc(F)cc1Br`, the melting point was 76 °C.

The compound `O=c1n(-c2ccccc2)c(=O)n2n1C1OC3c4ccccc4C1C32` (centres undefined) came in with a melting point of 146 °C.

`O=C1CCCN1c1ccc(Cl)cc1`: the melting point was in the range of 95 to 98 °C.

`Cc1ccc(/C=C2\CCC/C(=C\c3ccc(C)s3)C2=O)s1` displayed a melting point of 166 °C.

`COc1cc2c(cc1OC)C1(O)C(=O)c3ccc4c(c3OC1CO2)C=CC(C)(C)O4` (centres undefined): the melting point stood at 198 °C.

In turn, `c1ccc(N2CN(c3ccccc3)CN(c3ccccc3)C2)cc1` registered a melting point of 191 °C.

On to `CCOC(=O)c1cc2cc(Br)ccc2o1`, for which the melting point fell in the range of 69 to 72 °C.

On to `Nc1n[nH]c(N)c1Cc1ccc2c(c1)OCO2`, for which the melting point was in the range of 169 to 171 °C.

In turn, `COc1cc(OC(C)=O)c2c(=O)c(O[C@@H]3O[C@H](COC(C)=O)[C@H](OC(C)=O)[C@H](OC(C)=O)[C@@H]3O[C@@H]3O[C@H](C)[C@H](OC(C)=O)[C@H](OC(C)=O)[C@@H]3OC(C)=O)c(-c3ccc(OC(C)=O)c(OC(C)=O)c3)oc2c1` came in with a melting point of 117 to 120 °C.

`CCOc1nc2ccccc2c(=O)n1N` displayed a melting point of 97 to 98 °C.

In turn, `Cc1cc(=O)oc2cc(N)ccc12` had a melting point of 227 °C.

Take `CC(Cl)(Cl)C(=O)O`: the melting point is -5 °C.

Regarding `Cc1noc(-c2ccccc2)c1C(=O)O`, the melting point lay within 190 to 191 °C.

In turn, `CCCCc1ccc(NC(=O)c2ccc(OC)cc2)cc1` gave a melting point of 146 to 148 °C.

Take `CN1CCN(C(c2ccccc2)c2ccccc2)CC1`: the melting point worked out at 106 °C.

`Nc1ccc(S(=O)(=O)NCCO)cc1` came in with a melting point of 97 to 99 °C.

On to `O=C(O)C=CC(=O)Nc1cccc(Cl)c1`, for which the melting point was 198 °C.

`Nc1cc(Br)cc2cc[nH]c12` yielded a melting point of 105 °C.

`COC(=O)c1cc(C)on1` displayed a melting point of 92 °C.

`CC(C)(C)c1cc(C(C)(C)C)c(O)c(C(C)(C)C)c1` returned a melting point of 131 °C.

On to `CC(=O)n1c(C)cc2cc3cc(C)[nH]c3cc21`, for which the melting point worked out at 279 °C.

As to `O=C(N[C@@H](Cc1ccc(Br)cc1)C(=O)O)OCC1c2ccccc2-c2ccccc21`, the melting point worked out at 152 °C.

For the compound `CCCc1c(C)nc(NC(=O)NS(=O)(=O)c2cccs2)nc1O`, the melting point was in the range of 210 to 212 °C.

For the compound `CC1CCCCC1O` (centres undefined), the melting point is 7 °C.

Consider `COc1cc(-c2n[nH]c(=S)n2/N=C/c2cc(Br)ccc2O)cc(OC)c1OC`, for which the melting point fell in the range of 230 to 231 °C.

In turn, `CC(C)CC(N)CC(=O)O` (centres undefined) registered a melting point of 249 to 250 °C.

Regarding `CC1=NN(c2ccc([N+](=O)[O-])cc2)C(=O)C1`, the melting point lay within 220 to 225 °C.

As for `CCCCc1c(C)nc(N)nc1Cl`, the melting point came out at 162 °C.

As for `CC[C@@H]1CCC[C@H]1CC` (relative stereo), the melting point was -95 °C.

For the compound `Nc1ccc(C(F)(F)F)cc1Br`, the melting point is 29.5 °C.

In the case of `CC1(c2ccccc2)CC(C(=O)c2cc3ccccc3o2)C1` (centres undefined), the melting point lay in the range of 156 to 157 °C.

Consider `O=C(O)c1ccc2c(c1)C(=O)c1ccccc1C2=O`, for which the melting point was determined as 291 °C.

`Fc1cnccc1I` had a melting point of 88 °C.

(Values after a melting point compilation (Tetko et al.).)
